Data set [1] deals with FOP-ACVR1 (R206H) conditional transgenic mice. How it is done:
(§1) MTOR s604 […]tt […]at […]
Cardiotoxin-induced HO model in human FOP-ACVR1 conditional transgenic mice. Female hFOP-ACVR1 conditional transgenic mice (Beard et al., 2006; Hino et al., 2017; Ohnishi et al., 2014; Yamada et al., 2013) (f5-6 offspring of chimeric mice, age- and body weight- matched between groups) were used between 16 and 20 weeks of age. Mice were administered 2 mg/mL Dox in their drinking water supplemented with 10 mg / mL sucrose to induce FOP-ACVR1. Cardiotoxin (9.1 µg/mouse, Latoxan) was injected into the right gastrocnemius muscle to initiate skeletal muscle injury and subsequent heterotopic bone formation (Chakkalakal et al., 2012). Test compounds (16% DMSO in 0.5 w/v% Methyl Cellulose 400) were intraperitoneally administered once a day, five times a week. Mice were analyzed three weeks after injection.
For X- ray images, mice were anesthetized with isoflurane (5% for induction, 2-3% for maintenance, Abbvie), immobilized and X-rayed using µFX-1000 (Fujifilm) or DX-50 (Faxitron Bioptics). µCT images were scanned using X-ray CT systems (inspeXio SMX-100CT, Shimadzu) and analyzed with TRI/3D-BON software (Ratoc System Engineering) according to the manufacturer's instructions. Four weeks after injection, the injected sites were harvested, fixed with 4% paraformaldehyde for 24 h, embedded in paraffin, and sectioned and stained with HE, von Kossa, Safranin O and anti-Collagen I antibody as previously described ( Hino et al., 2015; U med a […]
BMP-7-induced HO model mice. […] Mice were analyzed 2 weeks after injection. […]
Histological analysis of growth plates chondrocytes. Knee joints were obtained from BMP-7-injected and test compounds-administrated C57BL/6NJcl mice after 2 weeks treatment and fixed, paraffin-embedded, and sectioned and stained with Safranin O. The thickness of the proliferative and hypertrophic zones of the growth plate were measured using ImageJ software on images obtained using a Keyence microscope (Keyence A merica). […]

A further data set concerns mTOR signaling (p-S6). Briefly: p-S6 western blotting during chondrogenic induction of FOP-iMSCs with activin A. Type of data set: cell-based, human. Particulars: 1 μM. A general note: In western blotting, separated proteins are transferred to a membrane and probed.
The subject of another data set is C57BL/6 mice. Briefly: Growth plate histology and normal bone µCT in compound-administered BMP-7-injected mice. Particulars: 5 mg/kg i.p., 2 weeks. The method, then:
as §1
System Engineering) according to the manufacturer's instructions. […]
BMP-7-induced HO model mice. BMP -7 (2 µ g/mouse) was injected into the right gastrocnemius muscle of C57BL/6NJcl mice (6-8 weeks, male, CLEA Japan), and compounds were administered once a day, five times a week (intraperitoneal administration). Mice were analyzed 2 weeks after injection. […]
Histological analysis of growth plates chondrocytes. Knee joints were obtained from BMP-7-injected and test compounds-administrated C57BL/6NJcl mice after 2 weeks treatment and fixed, paraffin-embedded, and sectioned and stained with Safranin O. The thickness of the proliferative and hypertrophic zones of the growth plate were measured using ImageJ software on images obtained using a Keyence microscope (Keyence A merica). The proliferative zone was defined as the region with flat chondrocytes stacked in longitudinal columns, and the hypertrophic zone as the region where chondrocytes are enlarged in size and form clusters.
Normal bone µCT. The left legs of mice were obtained from BMP -7-injected and test -compounds administrated C57BL/6NJcl mice after 2 weeks treatment. The region of interest (ROI) included the femur- tibia (entire femur in addition to the part of tibia above tibia/fibular junction). […]
Tests of side effects of direct and indirect mTOR inhibitors. Related

Another data set has as its system FOP-iMSCs. Briefly: Microarray / pathway analysis of activin A-induced chondrogenesis of FOP-iMSCs. Type of data set: cell-based, human. Particulars: 100 nM, activin A, 7 days. The method, then:
Microarray experiments. 2D chondrogenic induction was performed in FOP-iMSCs stimulated with or without 100 ng/mL Activin-A, TAK 165, CP-724714 and Lapatinib. Seven days after incubation, mRNA was extracted. RNA was reverse transcribed, biotin-labeled and hybridized to GeneChip Human Gene 1.0 ST Expression Array, which was subsequently washed and scanned according to the manufacturer’s instructions (Affymetrix). Raw CEL files were imported into GeneSpring GX 12.6.1 software (Agilent Technologies), and expression values were calculated with the RMA16 algorithm. Pathway analysis was performed by Ingenuity pathway analysis (Qiagen). […]

The next data set has as its system ERBB2. Particulars: panel of 300 recombinant protein kinases; ref Anastassiadis et al., 2011; cited from earlier work.

For `FC(F)(F)c1ccc(/C=C/c2nc(COc3ccc(CCCCn4ccnn4)cc3)co2)cc1` [TAK 165, mubritinib], in data set [1] (5 mg/kg i.p.), the “body weight change compared with vehicle” value is given as “No apparent differences” and the “von Kossa or COL1 staining of CTX-injected site” value was “less positive staining”. The “heterotopic ossification (heterotopic bone volume)” value in data set [1] (5 mg/kg i.p. once daily, five times a week, 3 weeks after CTX) is given as “significantly suppressed”. Moreover, the “p-S6 after 24-hr stimulation” value with mTOR signaling (p-S6) (24 hr) was “no effects”. Besides, the “p-S6 after 7 days of stimulation” value with mTOR signaling (p-S6) (7 days) is given as “dramatically decreased”. Besides, in the data set on C57BL/6 mice, the “Bone Mineral Density (normal bone µCT) vs vehicle” value was “n.s”; the “Bone volume (normal bone µCT, femur-tibia) vs vehicle” value was “n.s”; the “Hypertrophic zone thickness of growth plate vs vehicle” value is listed as “n.s”; the “Proliferative zone thickness of growth plate vs vehicle” value was “n.s”. Besides, in the data set with C57BL/6 mice, the “chondrogenesis of normal chondrocytes (growth plate)” value is recorded as “did not impair” and the “normal skeletal development in vivo” value was “did not impair”. In addition, the “transcriptome: genes involved in chondrogenesis or osteogenesis” value in the data set with FOP-iMSCs is listed as “affected genes that are involved in chondrogenesis or osteogenesis”. Further, the “selectivity for ERBB2” value with ERBB2 was “highly selective”.

The values above are taken from PMC6235670, “An mTOR Signaling Modulator Suppressed Heterotopic Ossification of Fibrodysplasia Ossificans Progressiva” (Stem Cell Reports, 2018).
